Results on 41 compounds are retold here after patent US10280149B2, “Therapeutic compounds and uses thereof” (GENENTECH, INC., priority 2015, dated 2019).

pIC50: −log10 of the molar value. Counter-ions that a name gives are not always drawn.

Full length KDM2B, sequence (Q8NHM5 whole entry): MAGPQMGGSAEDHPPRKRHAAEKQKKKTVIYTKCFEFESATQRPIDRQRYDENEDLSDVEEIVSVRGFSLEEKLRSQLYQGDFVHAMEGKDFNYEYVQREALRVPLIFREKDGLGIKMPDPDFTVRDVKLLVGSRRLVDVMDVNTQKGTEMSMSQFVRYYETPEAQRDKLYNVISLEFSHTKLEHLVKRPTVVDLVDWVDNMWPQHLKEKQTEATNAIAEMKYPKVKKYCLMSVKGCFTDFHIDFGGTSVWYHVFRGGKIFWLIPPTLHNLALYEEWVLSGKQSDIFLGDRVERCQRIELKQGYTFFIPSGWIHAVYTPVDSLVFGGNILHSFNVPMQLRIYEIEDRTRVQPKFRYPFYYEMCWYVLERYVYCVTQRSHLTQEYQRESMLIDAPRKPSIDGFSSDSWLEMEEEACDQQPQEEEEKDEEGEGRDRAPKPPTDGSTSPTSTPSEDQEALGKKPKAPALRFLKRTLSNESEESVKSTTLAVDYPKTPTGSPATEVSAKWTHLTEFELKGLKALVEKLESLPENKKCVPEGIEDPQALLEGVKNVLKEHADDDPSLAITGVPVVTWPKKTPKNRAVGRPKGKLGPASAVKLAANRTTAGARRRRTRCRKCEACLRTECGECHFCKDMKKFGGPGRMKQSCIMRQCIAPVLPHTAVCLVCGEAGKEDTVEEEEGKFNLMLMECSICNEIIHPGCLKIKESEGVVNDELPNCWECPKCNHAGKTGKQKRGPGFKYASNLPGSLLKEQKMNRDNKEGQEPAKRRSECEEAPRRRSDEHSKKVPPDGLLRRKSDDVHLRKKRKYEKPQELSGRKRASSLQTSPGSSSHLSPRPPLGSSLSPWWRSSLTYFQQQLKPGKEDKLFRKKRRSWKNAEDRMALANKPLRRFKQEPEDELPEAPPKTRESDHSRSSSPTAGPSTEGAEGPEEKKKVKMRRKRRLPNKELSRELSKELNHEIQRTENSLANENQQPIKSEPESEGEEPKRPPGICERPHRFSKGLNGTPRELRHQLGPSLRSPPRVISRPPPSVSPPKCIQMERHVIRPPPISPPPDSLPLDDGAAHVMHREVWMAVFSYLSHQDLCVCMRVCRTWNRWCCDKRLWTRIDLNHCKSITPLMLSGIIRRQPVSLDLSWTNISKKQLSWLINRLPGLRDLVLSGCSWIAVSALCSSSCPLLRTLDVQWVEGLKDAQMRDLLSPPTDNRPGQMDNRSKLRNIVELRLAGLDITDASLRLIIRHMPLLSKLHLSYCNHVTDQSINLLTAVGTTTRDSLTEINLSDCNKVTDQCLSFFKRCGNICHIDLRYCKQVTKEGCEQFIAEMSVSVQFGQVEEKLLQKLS

This test addresses Full length KDM2B (Homo sapiens (Human), UniProt Q8NHM5). Briefly: KDM2B TR-FRET assay for determining inhibitor IC50. In kind it is biochemical. Particulars: TR-FRET (HTRF), biotin-H3K36me2 peptide substrate, 2-OG 0.3 μM or 6 μM. The source says: KDM2B TR-FRET Assay for Determining Inhibitor IC50
The KDM2B TR-FRET Assay described above represents an additional embodiment of the invention.
For the compound `NC(=O)c1cc(C(=O)C2CCCN(CC3CC3)C2)cc2ccccc12` (centres unmarked) [Example 48, 3-[1-(cyclopropylmethyl)piperidine-3-carbonyl]naphthalene-1-carboxamide], the pIC50 (commonly the IC50 on a negative log10 scale, so that one unit is a factor of ten) was 6.74. With `Cn1c(=O)n(C)c2cc(C(=O)C3CCCN(CC4CC4)C3)ccc21` (centres unmarked) [Example 130, 5-(1-(cyclopropylmethyl)piperidine-3-carbonyl)-1,3-dimethyl-1H-benzo[d]imidazol-2-one], the pIC50 was 6.35.

In the case of `COc1ccc2cc(C(=O)[C@@H]3CN(C4CCC4)CC[C@@H]3c3ccccc3)ccc2c1` (single isomer, unassigned) [Example 141a, (1-cyclobutyl-4-phenylpiperidin-3-yl)(6-methoxynaphthalen-2-yl)methanone], the pIC50 was 6.00. The same measure for `COc1ccc2cc(C(=O)[C@@H]3CCCN(C4CCCC4)C3)ccc2c1` [Example 9, [(3R)-1-cyclopentyl-3-piperidyl]-(6-methoxy-2-naphthyl)methanone]: 5.52; for `CCCN1CC[C@@H](C)[C@@H](C(=O)c2ccc3c(CC#N)c(OC)ccc3c2)C1` (stereo in doubt) [Example 181a, 2-(2-methoxy-6-(4-methyl-1-propylpiperidine-3-carbonyl)naphthalen-1-yl)acetonitrile]: 5.89.

In the case of `O=C(c1cccc(Oc2ccccc2)c1)[C@@H]1CCCN(CC2CC2)C1` [Example 29, [(3R)-1-(cyclopropylmethyl)-3-piperidyl]-(3-phenoxyphenyl)methanone], the pIC50 was 6.83. `Cc1c(C(=O)C2CCCN(CC3CC3)C2)ccc2ccccc12` (centres unmarked) [Example 115, (1-(cyclopropylmethyl)piperidin-3-yl)(1-methylnaphthalen-2-yl)methanone]: the pIC50 is 6.36. The same measure for `O=C(c1cccc(Cl)c1)[C@@H]1CCCN(CC2CC2)C1` (stereo in doubt) [Example 118a, (3-chlorophenyl)(1-(cyclopropylmethyl)piperidin-3-yl)methanone]: 5.17; for `COc1ccc2cc(C(=O)C3CCCN(C4CCC4)C3)ccc2c1CO` (centres unmarked) [Example 189, (1-cyclobutylpiperidin-3-yl)(5-(hydroxymethyl)-6-methoxynaphthalen-2-yl)methanone hydrochloride]: 7.26; for `CCCN1CC[C@@H](C)[C@H](C(=O)c2ccc3cc(C#N)ccc3c2)C1` (stereo in doubt) [Example 163b, 6-(4-methyl-1-propylpiperidine-3-carbonyl)-2-naphthonitrile]: 7.34. The same measure for `CC[C@@H]1CCN(C2CCC2)C[C@H]1C(=O)c1ccc2cc(OC)ccc2c1` (single isomer, unassigned) [Example 142a, (1-cyclobutyl-4-ethylpiperidin-3-yl)(6-methoxynaphthalen-2-yl)methanone]: 7.94; for `CS(=O)(=O)N1CCc2cc(C(=O)C3CCCN(C4CCC4)C3)ccc2C1` (centres unmarked) [Example 149, (1-cyclobutylpiperidin-3-yl)(2-(methylsulfonyl)-1,2,3,4-tetrahydroisoquinolin-6-yl)methanone]: 6.79. Next, `COc1ccc2cc(C(=O)C3CCCN(C4COC4)C3)ccc2c1` (centres unmarked) [Example 14, (6-methoxy-2-naphthyl)-[1-(oxetan-3-yl)-3-piperidyl]methanone]: 5.92.

`COc1ccc2cc(C(=O)[C@@H]3CCCN(CC4CC4)C3)ccc2c1` [Example 7, [(3R)-1-(cyclopropylmethyl)-3-piperidyl]-(6-methoxy-2-naphthyl)methanone] had a pIC50 of 6.91. On to `CC[C@@H]1CCN(C2CCC2)C[C@@H]1C(=O)c1ccc2c(CC#N)c(OC)ccc2c1` (stereo in doubt) [Example 183c, 2-(6-(1-cyclobutyl-4-ethylpiperidine-3-carbonyl)-2-methoxynaphthalen-1-yl)acetonitrile], for which the pIC50 was 7.11. The same measure for `CCCN1CCCC(C(=O)c2ccc3cc(OC)ccc3c2)C1` (centres unmarked) [Example 18, (6-methoxy-2-naphthyl)-(1-propyl-3-piperidyl)methanone]: 6.79; for `CCCN1CCCC(C(=O)c2cccc(Cl)c2)C1` (centres unmarked) [Example 92, (3-chlorophenyl)-(1-propyl-3-piperidyl)methanone]: 6.14.

As to `CCC[C@@H]1CCN(C2CCC2)C[C@@H]1C(=O)c1ccc2c(CC#N)c(OC)ccc2c1` (stereo in doubt) [Example 184a, 2-(6-(1-cyclobutyl-4-propylpiperidine-3-carbonyl)-2-methoxynaphthalen-1-yl)acetonitrile], the pIC50 was 7.11. The same measure for `Cc1ccc2cc(C(=O)C3CCCN(C4CCCC4)C3)ccc2c1` (centres unmarked) [Example 166, (1-cyclopentylpiperidin-3-yl)(6-methylnaphthalen-2-yl)methanone]: 6.62; for `COc1ccc2cc(C(=O)[C@@H]3CN(C4CCC4)CC[C@@H]3C(C)C)ccc2c1` (single isomer, unassigned) [Example 143a, (1-cyclobutyl-4-isopropylpiperidin-3-yl)(6-methoxynaphthalen-2-yl)methanone]: 6.20; for `N#Cc1cc(C(=O)C2CCCN(C3CCCC3)C2)cc2ccccc12` (centres unmarked) [Example 45, 3-(1-cyclopentylpiperidine-3-carbonyl)naphthalene-1-carbonitrile]: 6.57. As for `Cc1cccc2ccc(C(=O)C3CCCN(C4CCCC4)C3)cc12` (centres unmarked) [Example 61, (1-cyclopentyl-3-piperidyl)-(8-methyl-2-naphthyl)methanone], the pIC50 was 6.76. Next, “(1-(cyclopropylmethyl)-4-methylpiperidin-3-yl)(6-methoxynaphthalen-2-yl)methanone [Example 137a]”: 7.15; `O=C(c1cnc2ccccc2c1)C1CCCN(CC2CC2)C1` (centres unmarked) [Example 125, (1-(cyclopropylmethyl)piperidin-3-yl)(quinolin-3-yl)methanone]: 6.31. Next, `CC(O)c1cc(C(=O)C2CCCN(C3CCCC3)C2)cc2ccccc12` (centres unmarked) [Example 63, (1-cyclopentyl-3-piperidyl)-[4-(1-hydroxyethyl)-2-naphthyl]methanone]: 6.82; `COc1ccc2cc(C(=O)[C@@H]3CN(C4CCC4)CC[C@@H]3CC(C)C)ccc2c1CC#N` (stereo in doubt) [Example 185a, 2-(6-(1-cyclobutyl-4-isobutylpiperidine-3-carbonyl)-2-methoxynaphthalen-1-yl)acetonitrile]: 7.27.

With `Cc1cccc2ccc(C(=O)C3CCCN(C4CCC4)C3)cc12` (centres unmarked) [Example 62, (1-cyclobutyl-3-piperidyl)-(8-methyl-2-naphthyl)methanone], the negative-log IC50 (pIC50) is 6.99. With `COc1ccc2cc(C(=O)C3CN(C4CCC4)CCN3Cc3ccc4ccccc4c3)ccc2c1` (centres unmarked) [Example 197, [4-cyclobutyl-1-(2-naphthylmethyl)piperazin-2-yl]-(6-methoxy-2-naphthyl)methanone], the pIC50 was 6.78.

The compound `C[C@@H]1CCN(CC2CC2)C[C@H]1C(=O)c1ccc2cc(C#N)ccc2c1` (stereo in doubt) [Example 160b, 6-(1-(cyclopropylmethyl)-4-methylpiperidine-3-carbonyl)-2-naphthonitrile] gave a pIC50 of 6.95. Take `NC(=O)c1cc(C(=O)C2CCCN(C3CCC3)C2)cc2ccccc12` (centres unmarked) [Example 47, 3-(1-cyclobutylpiperidine-3-carbonyl)naphthalene-1-carboxamide]: the pIC50 is 7.00. The same measure for `COc1ccc2cc(C(=O)C3CN(C4CCC4)CCN3C)ccc2c1` (centres unmarked) [Example 194, (4-cyclobutyl-1-methyl-piperazin-2-yl)-(6-methoxy-2-naphthyl)methanone]: 5.77; for `Cc1c(C#N)ccc2cc(C(=O)C3CCCN(CC4CC4)C3)ccc12` (centres unmarked) [Example 71, 6-(1-(cyclopropylmethyl)piperidine-3-carbonyl)-1-methyl-2-naphthonitrile]: 6.88. In turn, `O=C(c1ccc2cc(CO)ccc2c1)C1CCCN(CC2CC2)C1` (centres unmarked) [Example 152, (1-(cyclopropylmethyl)piperidin-3-yl)(6-(hydroxymethyl)naphthalen-2-yl)methanone] gave a negative logarithm of the IC50 (pIC50) of 6.63. In turn, `CNC(=O)c1cc(C(=O)C2CCCN(C3CCCC3)C2)cc2ccccc12` (centres unmarked) [Example 41, 3-(1-cyclopentylpiperidine-3-carbonyl)-N-methyl-naphthalene-1-carboxamide] showed a pIC50 of 6.15. The same measure for `COc1ccc2cc(C(=O)[C@H]3CN(C4CCC4)CC[C@H]3C(C)C)ccc2c1CC#N` (stereo in doubt) [Example 186b, 2-(6-(1-cyclobutyl-4-isopropylpiperidine-3-carbonyl)-2-methoxynaphthalen-1-yl)acetonitrile]: 8.67. Next, `Cn1ccc2ccc(C(=O)C3CCCN(CC4CC4)C3)cc21` (centres unmarked) [Example 119, (1-(cyclopropylmethyl)piperidin-3-yl)(1-methyl-1H-indol-6-yl)methanone]: 5.64; `COCCN1CCCC(C(=O)c2ccc3cc(OC)ccc3c2)C1` (centres unmarked) [Example 78, [1-(2-methoxyethyl)-3-piperidyl]-(6-methoxy-2-naphthyl)methanone]: 5.62; `COc1ccc(C(=O)C2CCCN(C3CCC3)C2)c(OC)c1` (centres unmarked) [Example 5, (1-cyclobutyl-3-piperidyl)-(2,4-dimethoxyphenyl)methanone]: 5.60. In the case of `COc1ccc2cc(C(=O)C3CCCN(C4CCCC4)C3)ccc2c1CC#N` (centres unmarked) [Example 54, 2-[6-(1-cyclopentylpiperidine-3-carbonyl)-2-methoxy-1-naphthyl]acetonitrile], the pIC50 was 7.40. The same measure for `COc1ccc2cc(C(=O)C3CN(C4CCC4)CCN3Cc3ccc(C#N)cc3)ccc2c1` (centres unmarked) [Example 199, 4-[[4-cyclobutyl-2-(6-methoxynaphthalene-2-carbonyl)piperazin-1-yl]methyl]benzonitrile]: 7.51.

Turning to `COc1ccc2cc(C(=O)[C@H]3CN(CC4CC4)CC[C@H]3C)ccc2c1` (single isomer, unassigned) [Example 137c, (1-(cyclopropylmethyl)-4-methylpiperidin-3-yl)(6-methoxynaphthalen-2-yl)methanone], the pIC50 is 5.96.
